In the supplement of paper PMC6045584:
± gives the standard deviation of the averaged measurements.

Columns and labels:
LENVATINIB = compound: COc1cc2nccc(Oc3ccc(NC(=O)NC4CC4)c(Cl)c3)c2cc1C(N)=O [LENVATINIB]; test: surviving fraction relative to DMSO-only wells; higher = less growth inhibition; settings: exposure time: 5 days
Outline: (§1)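 Surviving fraction was calculated by normalising CellTiter-Glo luminescence to the median of DMSO-only wells. Tumour cell lines in log phase were seeded in 384-well plates at 250–500 cells per well, and 24 hours later were exposed continuously for five days to inhibitors at 0.5, 1, 5, 10, 50, 100, 500 and 1000 nM.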

[1] = compound: COc1ccc(-c2cc3c(C)nc(N)nc3n([C@H]3CC[C@H](OCCO)CC3)c2=O)cn1; test: as above; settings: exposure time: 5 days
Outline: as §1

Row | Test System | surviving fraction (LENVATINIB; 0.5 nM) | surviving fraction (LENVATINIB; 1 nM) | surviving fraction (LENVATINIB; 5 nM) | surviving fraction (LENVATINIB; 10 nM) | surviving fraction (LENVATINIB; 50 nM) | surviving fraction (LENVATINIB; 100 nM) | surviving fraction (LENVATINIB; 500 nM) | surviving fraction (LENVATINIB; 1000 nM) | surviving fraction ([1]; 0.5 nM) | surviving fraction ([1]; 1 nM) | surviving fraction ([1]; 5 nM) | surviving fraction ([1]; 10 nM) | surviving fraction ([1]; 50 nM) | surviving fraction ([1]; 100 nM) | surviving fraction ([1]; 500 nM) | surviving fraction ([1]; 1000 nM)
1 | SNU475 LIVER | 1.04 ± 0.069 | 1.04 ± 0.042 | 1.02 ± 0.07 | 1.03 ± 0.03 | 0.971 ± 0.045 | 1.03 ± 0.018 | 0.995 ± 0.037 | 1 ± 0.016 | 0.94 ± 0.013 | 0.951 ± 0.022 | 0.891 ± 0.041 | 0.865 ± 0.012 | 0.625 ± 0.014 | 0.404 ± 0.036 | 0.127 ± 0.0076 | 0.0823 ± 0.0011
2 | SKBR3 BREAST | 1 ± 0.18 | 1.08 ± 0.11 | 1.04 ± 0.15 | 1.06 ± 0.099 | 1.05 ± 0.19 | 1.16 ± 0.11 | 1.1 ± 0.068 | 0.944 ± 0.17 | 0.863 ± 0.093 | 0.88 ± 0.073 | 0.833 ± 0.23 | 0.763 ± 0.15 | 0.434 ± 0.073 | 0.204 ± 0.043 | 0.058 ± 0.0053 | 0.0507 ± 0.0047
3 | SCC36 HEADNECK | 1.06 ± 0.041 | 1.12 ± 0.063 | 1.12 ± 0.18 | 1.21 ± 0.064 | 1.18 ± 0.044 | 1.08 ± 0.036 | 1.01 ± 0.044 | 1.05 ± 0.025 | 1.11 ± 0.012 | 0.988 ± 0.031 | 0.914 ± 0.016 | 1.11 ± 0.056 | 0.807 ± 0.017 | 0.84 ± 0.086 | 0.167 ± 0.024 | 0.143 ± 0.024
4 | CAL72 BONE | 1.14 ± 0.086 | 1.12 ± 0.046 | 1.14 ± 0.088 | 1.12 ± 0.062 | 1.16 ± 0.069 | 1.18 ± 0.12 | 1.01 ± 0.13 | 0.613 ± 0.051 | 1.09 ± 0.055 | 1.06 ± 0.043 | 1.04 ± 0.043 | 1.05 ± 0.027 | 0.993 ± 0.038 | 0.805 ± 0.045 | 0.235 ± 0.014 | 0.214 ± 0.031
5 | LNCAP PROSTATE | 1.16 ± 0.031 | 0.973 ± 0.044 | 0.904 ± 0.17 | 0.896 ± 0.1 | 1.02 ± 0.13 | 0.924 ± 0.16 | 0.909 ± 0.12 | 0.533 ± 0.073 | 0.877 ± 0.095 | 0.872 ± 0.045 | 0.759 ± 0.026 | 0.622 ± 0.041 | 0.226 ± 0.024 | 0.099 ± 0.012 | 0.0437 ± 0.0051 | 0.035 ± 0.0044
6 | A549 LUNG | 1.04 ± 0.067 | 1.03 ± 0.053 | 1.04 ± 0.053 | 1.04 ± 0.061 | 1.06 ± 0.087 | 1.03 ± 0.044 | 1.13 ± 0.073 | 1.12 ± 0.025 | 0.958 ± 0.049 | 0.939 ± 0.044 | 0.927 ± 0.026 | 0.936 ± 0.035 | 1.02 ± 0.032 | 0.886 ± 0.016 | 0.325 ± 0.024 | 0.158 ± 0.0036
7 | SCC90 HEADNECK | 1.12 ± 0.056 | 1.12 ± 0.071 | 1.15 ± 0.13 | 1.22 ± 0.093 | 1.18 ± 0.098 | 1.17 ± 0.048 | 1.21 ± 0.085 | 1.3 ± 0.074 | 0.913 ± 0.076 | 0.916 ± 0.037 | 0.892 ± 0.034 | 0.904 ± 0.15 | 0.674 ± 0.074 | 0.555 ± 0.077 | 0.194 ± 0.025 | 0.222 ± 0.054
8 | SUM44 BREAST | 1.01 ± 0.06 | 1.03 ± 0.054 | 1.03 ± 0.048 | 1.04 ± 0.018 | 1.05 ± 0.044 | 1.07 ± 0.052 | 1.03 ± 0.029 | 1.01 ± 0.015 | 0.914 ± 0.026 | 0.974 ± 0.044 | 1.01 ± 0.027 | 0.957 ± 0.04 | 0.864 ± 0.043 | 0.747 ± 0.017 | 0.225 ± 0.028 | 0.151 ± 0.0051
9 | MHM BONE | 1.033 ± 0.0097 | 1.01 ± 0.024 | 1.025 ± 0.0038 | 1.074 ± 0.0044 | 1.05 ± 0.033 | 1.03 ± 0.037 | 0.981 ± 0.019 | 0.937 ± 0.05 | 0.999 ± 0.011 | 0.967 ± 0.013 | 0.99 ± 0.012 | 0.957 ± 0.018 | 0.888 ± 0.029 | 0.823 ± 0.013 | 0.478 ± 0.015 | 0.29 ± 0.0046
10 | H23 LUNG | 1.03 ± 0.054 | 1.05 ± 0.06 | 1.06 ± 0.079 | 1.05 ± 0.08 | 1.05 ± 0.049 | 1.12 ± 0.074 | 1.15 ± 0.068 | 1.17 ± 0.069 | 0.989 ± 0.016 | 0.98 ± 0.078 | 0.872 ± 0.063 | 0.731 ± 0.042 | 0.422 ± 0.018 | 0.265 ± 0.028 | 0.127 ± 0.0091 | 0.0933 ± 0.005
11 | SUM149 BREAST | 1.07 ± 0.12 | 1.04 ± 0.061 | 1.05 ± 0.025 | 1.02 ± 0.16 | 1.04 ± 0.076 | 1.01 ± 0.066 | 0.992 ± 0.06 | 0.965 ± 0.084 | 1.02 ± 0.042 | 1.1 ± 0.1 | 0.963 ± 0.067 | 0.9127 ± 0.0085 | 0.697 ± 0.036 | 0.474 ± 0.03 | 0.161 ± 0.0021 | 0.0763 ± 0.0038
12 | MFM223 BREAST | 1.16 ± 0.069 | 1.08 ± 0.12 | 1.09 ± 0.077 | 1.12 ± 0.024 | 1.06 ± 0.13 | 0.813 ± 0.053 | 0.336 ± 0.02 | 0.29 ± 0.014 | 1.09 ± 0.086 | 1.1 ± 0.063 | 1.04 ± 0.061 | 0.993 ± 0.079 | 0.674 ± 0.071 | 0.432 ± 0.016 | 0.127 ± 0.012 | 0.0725 ± 0.0048
13 | ASKA SYNOVIAL | 1.12 ± 0.063 | 1.04 ± 0.045 | 1.13 ± 0.082 | 1.12 ± 0.1 | 1.19 ± 0.11 | 1.21 ± 0.024 | 1.09 ± 0.044 | 1.04 ± 0.041 | 0.923 ± 0.037 | 0.896 ± 0.064 | 0.878 ± 0.076 | 0.776 ± 0.054 | 0.462 ± 0.019 | 0.366 ± 0.025 | 0.187 ± 0.011 | 0.229 ± 0.026
14 | HSSYII SYNOVIAL | 0.933 ± 0.057 | 0.961 ± 0.028 | 0.952 ± 0.018 | 0.942 ± 0.06 | 0.842 ± 0.026 | 0.724 ± 0.024 | 0.38 ± 0.024 | 0.3 ± 0.017 | 0.926 ± 0.034 | 0.941 ± 0.07 | 0.821 ± 0.045 | 0.789 ± 0.036 | 0.502 ± 0.006 | 0.329 ± 0.014 | 0.12 ± 0.0097 | 0.093 ± 0.0052
15 | HT1080 SOFT TISSUE | 1 ± 0.043 | 1.01 ± 0.051 | 1 ± 0.033 | 1.02 ± 0.032 | 1 ± 0.013 | 0.978 ± 0.021 | 1 ± 0.039 | 0.987 ± 0.026 | 1.02 ± 0.038 | 0.974 ± 0.029 | 1.001 ± 0.0067 | 0.955 ± 0.1 | 0.829 ± 0.012 | 0.661 ± 0.031 | 0.255 ± 0.015 | 0.161 ± 0.0072
16 | CHLA90 AUTONOMIC GANGLIA | 0.984 ± 0.039 | 0.999 ± 0.043 | 0.954 ± 0.05 | 1 ± 0.077 | 0.972 ± 0.049 | 0.939 ± 0.051 | 1.05 ± 0.043 | 1.04 ± 0.034 | 1.05 ± 0.018 | 1 ± 0.061 | 0.951 ± 0.077 | 0.86 ± 0.04 | 0.753 ± 0.015 | 0.586 ± 0.045 | 0.206 ± 0.014 | 0.102 ± 0.0045
17 | JIMT1 BREAST | 0.987 ± 0.026 | 1.03 ± 0.0053 | 1.03 ± 0.026 | 1.03 ± 0.052 | 1.06 ± 0.068 | 1.04 ± 0.011 | 1 ± 0.015 | 1.08 ± 0.011 | 0.983 ± 0.03 | 0.961 ± 0.023 | 0.968 ± 0.011 | 0.937 ± 0.024 | 0.857 ± 0.021 | 0.606 ± 0.022 | 0.19 ± 0.0061 | 0.114 ± 0.013
18 | RDES SOFT TISSUE | 1.33 ± 0.018 | 1.38 ± 0.032 | 1.15 ± 0.067 | 1.23 ± 0.083 | 1.28 ± 0.18 | 1.09 ± 0.14 | 1.09 ± 0.18 | 0.964 ± 0.25 | 1.23 ± 0.074 | 1.24 ± 0.12 | 1.13 ± 0.1 | 1.22 ± 0.097 | 1.34 ± 0.055 | 1.03 ± 0.038 | 0.301 ± 0.015 | 0.166 ± 0.021
19 | NOS1 BONE | 1.09 ± 0.012 | 1.01 ± 0.079 | 1.24 ± 0.34 | 0.922 ± 0.074 | 0.826 ± 0.034 | 0.703 ± 0.021 | 0.624 ± 0.087 | 0.529 ± 0.011 | 1.13 ± 0.032 | 0.989 ± 0.13 | 1.2 ± 0.16 | 0.96 ± 0.1 | 0.6 ± 0.048 | 0.448 ± 0.029 | 0.158 ± 0.0032 | 0.095 ± 0.015
